Measured values taken from US10875864B2, “Substituted imidazo[1,2-B]pyridazines as protein kinase inhibitors” (SUMITOMO DAINIPPON PHARMA ONCOLOGY, INC., priority 2011, dated 2020).

Tests used:
UM-UC-3 cells = test: Colony formation assay, UM-UC-3; type: cell-based
Description: (§1) For shRNA growth experiments, 500 UM-UC-3 cells were seeded in a 12-well plate 48 hours post-transduction and cultured for 8-10 days at 37° C. in 5% CO2. Cells were fixed with 4% paraformaldehyde in PBS, washed twice with PBS, and stained with a crystal violet solution (1% crystal violet, 10% ethanol in water). Stained cells were washed thrice with water, and imaged after drying on a GelCount colony counter (Oxford Optronix Ltd., Oxford, UK). Total staining intensity per well was determined by lysis of cells with 200 μl of Triton X-100 lysis buffer (1% Triton X-100, 50 mM Tris-HCl pH 7.4, 150 mM NaCl, 1 mM EDTA). Lysates (100 μl) from each well were transferred to a clear 96-well plate and absorbance at 560 nm was determined on an Envision microplate reader. IC50 values were determined using GraphPad Prism software. For compound treated PC-3 and UM-UC-3, cells were seeded and stained as above, but were incubated with various concentrations of test compound or DMSO one day after seeding.
(§2) Translational models were also explored for PIM dependency using shRNA knockdown. The UM-UC-3 urinary epithelial bladder carcinoma cell line was used to verify and validate dependency on PIM-1 for growth. […] Reduction of PIM-1 mRNA and growth also were observed using both PIM-1 and PIM-2 shRNA in the androgen-independent prostate carcinoma cell line PC-3 (data not shown).

NIH-3T3/PIM-2 xenografts = test: NIH-3T3/PIM-2 over-expression tumor xenograft; type: in vivo, mouse
Description: (§3) Male and female Nu/Nu mice were purchased from Harlan Sprague Dawley (Indianapolis, Ind.). Female Nu/Nu mice were used for all xenograft evaluations with the exception of the PC-3 xenografts where male Nu/Nu mice were used. Cell lines were expanded in vitro in complete media, and if adherent were harvested by trypsin-EDTA, centrifuged and resuspended in PBS 1:1 with Matrigel (BD Bioscienes). Cells were inoculated subcutaneously in the right hind flank of mice. When tumors reached 100-200 mm^3 by caliper measurement, mice were randomized and dosing of SGI-9481 or vehicle control began and continued every day for 5 days (QD×5) with 2 days off for 18-21 days. Tumor volumes and body weights were determined twice a week, and tumor weights were measured at the completion of the translational xenograft studies.
(§4) The prostate cancer cell line 22RV1 engineered to over-express PIM-1 as previously described (Mumenthaler, et al, Mol. Cancer Ther., 2009, 8(10)2882-93) was evaluated in vivo. A second model engineered to over-express PIM-2 was established using the NIH-3T3 mouse fibroblast cell line.

[1] = test system: phosphatidyl inositol-3-kinase (PI3K) family; test: Selectivity study, PI3K family; type: biochemical; conditions: multiple members
UM-UC-3 xenograft tumors = test: UM-UC-3 established mouse xenograft; type: in vivo
Description: as §3, with “When tumors reached 100-200 mm^3 by caliper measurement, mice were randomized and dosing of SGI-9481 or vehicle control began and continued every day for 5 days (QD×5) with 2 days off for 18-21 days.” left out

PC-3 cells = test: Colony formation assay, PC-3; type: cell-based
Description: as §1, §2

[2] = test system: ML-2 cells (wild-type FLT3); test: ML-2 mouse xenograft; type: in vivo; conditions: ML-2, wild-type FLT3
Description: as §3

MV-4-11 (FLT3-ITD) = test: MV-4-11 mouse xenograft; type: in vivo
Description: as §3

PC-3 xenograft tumors = test: PC-3 established mouse xenograft; type: in vivo
Description: as §3, with “When tumors reached 100-200 mm^3 by caliper measurement, mice were randomized and dosing of SGI-9481 or vehicle control began and continued every day for 5 days (QD×5) with 2 days off for 18-21 days.” left out

22RV1/PIM-1 xenografts = test: 22RV1/PIM-1 over-expression tumor xenograft; type: in vivo, mouse
Description: as §3, §4

With `CC(C)(O)[C@H]1CC[C@H](Nc2ccc3ncc(-c4cccc(C(F)(F)F)c4)n3n2)CC1` [Compound 8-31] as the compound, how does the colony growth (UM-UC-3 cells) read?
Its colony growth is “reduced colony growth”.

And the subcutaneous tumor growth (NIH-3T3/PIM-2 xenografts; NIH-3T3/PIM-2 + compound vs vehicle)?
Its subcutaneous tumor growth is “significantly inhibited”.

And the body weight change (NIH-3T3/PIM-2 xenografts; NIH-3T3 xenograft mice)?
The body weight change was “No significant changes in body weight”.

And the “activity against PI3K family members” value [1]?
Its value is “inhibitory activity”.

And the tumor growth inhibition (UM-UC-3 xenograft tumors; 125 mg/kg)?
The tumor growth inhibition was “significant tumor growth inhibition”.

What about the “body weight and gross toxicity” value (UM-UC-3 xenograft tumors; oral 200 mg/kg) of the same compound?
Its value is “no significant changes in body weight or gross adverse toxicity”.

And the “tumor growth by volume and final tumor weight” value (UM-UC-3 xenograft tumors; oral 200 mg/kg)?
Its value is “significantly reduced”.

What about the colony growth (PC-3 cells) of the same compound?
Its colony growth is “reduced colony growth”.

And the tumor growth inhibition [2]?
Its tumor growth inhibition is “significant tumor growth inhibition”.

And the “effect on established xenografts” value (MV-4-11 (FLT3-ITD))?
The value was “induced regressions”.

What about the tumor growth inhibition (PC-3 xenograft tumors; 125 mg/kg) of the same compound?
The tumor growth inhibition was “significant tumor growth inhibition”.

And the “body weight and gross toxicity” value (PC-3 xenograft tumors; oral 200 mg/kg)?
The value was “no significant changes in body weight or gross adverse toxicity”.

And the “tumor growth by volume and final tumor weight” value (PC-3 xenograft tumors; oral 200 mg/kg)?
Its value is “significantly reduced”.

And the subcutaneous tumor growth (22RV1/PIM-1 xenografts; 22RV1/PIM-1 + compound vs vehicle)?
The subcutaneous tumor growth was “significantly reduced”.

And the body weight change (22RV1/PIM-1 xenografts; 22RV1 xenograft mice)?
Its body weight change is “No significant changes in body weight”.
